In test [1] the test system is vitamin D-deficient rats. Kind of test: Bone calcium mobilization (serum calcium). In kind it is in vivo, rat. The protocol:
(§1) Male, weanling Sprague-Dawley rats were placed on Diet 11 (Suda et al, J. Nutr. 100:1049, 1970) (0.47% Ca)+vitamins AEK for one week followed by Diet 11 (0.02% Ca)+vitamins AEK for 3 weeks. The rats were then switched to the same diet containing 0.47% Ca for one week followed by two weeks on the same diet containing 0.02% Ca. Dose administration began during the last week on 0.02% calcium diet. Four consecutive ip doses were given approximately 24 hours apart. Twenty-four hours after the last dose, blood was collected from the severed neck and the concentration of serum calcium determined by atomic absorption spectrometry as a measure of bone calcium mobilization. The first 10 cm of the intestine was also collected for intestinal calcium transport analysis using the everted gut sac method.

Test [2] has as its target T1, full-length recombinant rat vitamin D receptor (Rattus norvegicus, UniProt P13053).
T1 construct: Full-length recombinant rat receptor was expressed in E. coli; histidine tag (C); made in house; host or cells: E. coli BL21 (DE3) Codon Plus RIL
T1 sequence (P13053 1-423): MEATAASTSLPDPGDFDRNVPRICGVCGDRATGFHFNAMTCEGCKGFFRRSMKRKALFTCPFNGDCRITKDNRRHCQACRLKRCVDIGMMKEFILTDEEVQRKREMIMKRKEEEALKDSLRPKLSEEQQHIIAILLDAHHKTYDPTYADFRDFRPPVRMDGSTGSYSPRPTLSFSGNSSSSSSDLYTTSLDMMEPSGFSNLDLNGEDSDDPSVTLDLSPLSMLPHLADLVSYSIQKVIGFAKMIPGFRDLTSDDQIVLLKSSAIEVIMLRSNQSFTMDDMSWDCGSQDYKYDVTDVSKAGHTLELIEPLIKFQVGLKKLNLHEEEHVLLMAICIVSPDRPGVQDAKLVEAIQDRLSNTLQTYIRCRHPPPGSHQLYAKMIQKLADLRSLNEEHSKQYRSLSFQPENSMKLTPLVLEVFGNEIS
Kind of test: Vitamin D receptor competitive binding with [3H]-1,25(OH)2D3. The settings on record: read-out: Ki, competition with [3H]-1,25(OH)2D3 for binding to vitamin D receptor. On the procedure: Full-length recombinant rat receptor was expressed in E. coli BL21 (DE3) Codon Plus RIL cells and purified to homogeneity using two different column chromatography systems. The first system was a nickel affinity resin that utilizes the C-terminal histidine tag on this protein. The protein that was eluted from this resin was further purified using ion exchange chromatography (S-Sepharose Fast Flow). Aliquots of the purified protein were quick frozen in liquid nitrogen and stored at −80° C. until use. For use in binding assays, the protein was diluted in TEDK50 (50 mM Tris, 1.5 mM EDTA, pH7.4, 5 mM DTT, 150 mM KCl) with 0.1% Chaps detergent. The receptor protein and ligand concentration was optimized such that no more than 20% of the added radiolabeled ligand was bound to the receptor.
The following day, 100 mcl of hydroxylapatite slurry (50%) was added to each tube and mixed at 10-minute intervals for 30 minutes. […] After the final wash, the pellets were transferred to scintillation vials containing 4 ml of Biosafe II scintillation cocktail, mixed and placed in a scintillation counter. Total binding was determined from the tubes containing only radiolabeled ligand.

The subject of test [3] is Human promyelocytic leukemia (HL60) cells. Kind of test: HL-60 cell differentiation (nitro blue tetrazolium reduction). In kind it is cell-based. The settings on record: four days treatment, read-out: EC50, promotion of HL60 differentiation. On the procedure:
The study drugs were dissolved in ethanol and the concentrations determined using UV spectrophotometry. Serial dilutions were prepared so that a range of drug concentrations could be tested without changing the final concentration of ethanol (≦0.2%) present in the cell cultures.
Human promyelocytic leukemia (HL60) cells were grown in RPMI-1640 medium containing 10% fetal bovine serum. The cells were incubated at 37° C. in the presence of 5% CO2.
HL60 cells were plated at 1.2×10^5 cells/ml. Eighteen hours after plating, cells in duplicate were treated with drug. Four days later, the cells were harvested and a nitro blue tetrazolium reduction assay was performed (Collins et al., 1979; J. Exp. Med. 149:969-974). The percentage of differentiated cells was determined by counting a total of 200 cells and recording the number that contained intracellular black-blue formazan deposits. Verification of differentiation to monocytic cells was determined by measuring phagocytic activity (data not shown).

Test [4] has as its system vitamin D-deficient rats. As to the kind of experiment: Intestinal calcium transport (everted gut sac method). It is filed as in vivo, rat. To be noted: rats on 0.02% Ca diet, four consecutive ip doses. On the procedure: as §1
The subject of test [5] is 24-hydroxylase (24Ohase) gene promoter. As to the kind of experiment: In vitro transcription assay, luciferase reporter in ROS 17/2.8 (bone) cells. In kind it is cell-based. To be noted: FIG. 3; for EC50: ROS 17/2.8 cells, sixteen hours after dosing, read-out: EC50, transcriptional activity in bone cells (24-hydroxylase gene). The protocol: Transcription activity was measured in ROS 17/2.8 (bone) cells that were stably transfected with a 24-hydroxylase (24Ohase) gene promoter upstream of a luciferase reporter gene (Arbour et al., 1998). Cells were given a range of doses. Sixteen hours after dosing the cells were harvested and luciferase activities were measured using a luminometer. RLU=relative luciferase units.
For orientation: In a reporter assay the amount or activity of a reporter protein is the signal.

The mark [6] stands for this setting: 780 pmol/day for 4 consecutive days, ip, rats on 0.02% Ca diet.
The mark [7] stands for this setting: four consecutive ip doses, rats on 0.02% Ca diet.

Results on three compounds are retold here after US8518917B2, “2-methylene-19-nor-vitamin D analogs and their uses” (Wisconsin Alumni Research Foundation, priority 2009, dated 2013).

Read-outs that look alike come from different tables or passages of the source.

In the case of `C=C1CC/C(=C\C=C2/CCC[C@]3(C)[C@@H]([C@H](C)CCCC(C)(C)O)CC[C@@H]23)C[C@H]1O` [1D-MJ, (20R)-25-hydroxy-2-methylene-19-nor-vitamin D3], the “mobilization of bone calcium (serum calcium)” value (from here on “mobilization of bone calcium”) in the test on vitamin D-deficient rats [1] (setting [6]) was “little or no mobilization of bone calcium”. The “dose until which little to no bone calcium mobilization activity is observed” value in the test on vitamin D-deficient rats [1] (setting [7]) is not below 7020 pmol/rat. In addition, the inhibitory constant (Ki) in test [2] (FIG. 6 experiment (1D-MJ vs 1,25(OH)2D3)) turned out to be 4 nM. In test [3] (Homo sapiens, HL-60, 96 h, FIG. 7 experiment), the EC50 amounted to 300 nM. The “times less potent than 1,25(OH)2D3 in promoting intestinal calcium transport” value with vitamin D-deficient rats [4] is “about 10 times”.
`C=C1CC/C(=C\C=C2/CCC[C@]3(C)[C@@H]([C@@H](C)CCCC(C)(C)O)CC[C@@H]23)C[C@H]1O` [1-desoxy-2MD, (20S)-25-hydroxy-2-methylene-19-nor-vitamin D3]: the “mobilization of bone calcium” value in the test on vitamin D-deficient rats [1] (setting [6]) is reported as “little or no mobilization of bone calcium”. In addition, the “dose until which little to no bone calcium mobilization activity is observed” value with vitamin D-deficient rats [1] (setting [7]) is not below 7020 pmol/rat. Besides, the Ki in test [2] (FIG. 1 experiment (1-desoxy-2MD vs 1,25(OH)2D3)) is 0.1 nM. Besides, the EC50 in test [3] (Homo sapiens, HL-60, 96 h, FIG. 2 experiment) came out at 10 nM; in test [5] it was 4 nM. The “times less potent than 1,25(OH)2D3 in promoting intestinal calcium transport” value with vitamin D-deficient rats [4] is recorded as “about 20 times”. Also, in test [5] (bone cells), the “times less potent than 1,25(OH)2D3 in increasing transcription of the 24-hydroxylase gene” value is “about 20 times”.
Regarding `C=C1/C(=C\C=C2/CCC[C@]3(C)[C@@H]([C@H](C)CCCC(C)(C)O)CC[C@@H]23)C[C@@H](O)C[C@@H]1O` [1α,25-dihydroxyvitamin D3, reference compound], the “mobilization of bone calcium” value in the test with vitamin D-deficient rats [1] (87 pmol, four consecutive ip doses, FIG. 8) is on record as “significant increases in serum calcium”; with vitamin D-deficient rats [1] (setting [6]), “significant increases in serum calcium”. Moreover, the EC50 in test [3] (FIG. 2 experiment) came to 4 nM; in test [3] (FIG. 7 experiment) it was 3 nM; in test [5], 0.2 nM.

For orientation: Ki means the equilibrium dissociation constant of an inhibitor or competing ligand from its target. As a reminder, the EC50 is the concentration needed to bring the measured effect to its halfway point.
